According to article PMC9618981, “Impact of peptide permeation enhancer on tight junctions opening cellular mechanisms” (Biochemistry and Biophysics Reports, 2022):
Ends that are not written are not given here. Peptide text beside a SMILES is read from it. * marks the point of attachment. Myristoyl = CCCCCCCCCCCCCC(=O)*

Experiments:
[1] = tested on: occludin expression in Caco-2 cells; assay: Immunoblot of total protein extracts from Caco-2 cells, occludin; assay type: cell-based, human; details: Caco-2, 1 h, peptides 50 μM, In 10 μM
Experimental: (§1) Caco-2 cells (ATCC, Manassas, VA, USA) were cultured in T75 flasks (Merck, Schaffhausen, Switzerland). The cells were incubated at 37 °C and a humidified atmosphere containing 5% of CO2. The medium containing 10% fetal bovine serum (FBS, Thermofisher, Waltham, MA, USA) was changed every 2–3 days. The Caco-2 cells were passaged every 5 days. The passage numbers were between 33 and 36.
(§2) For Western blot experiments, cells were seeded in 12-well plates (Merck, Schaffhausen, Switzerland) at a density of 50′000 cells/cm^2. For the proteomic experiments, the cells were seeded in T10 flasks (Merck, Schaffhausen, Switzerland) at the same initial seeding density. After 7 days and two washes with warm phosphate buffered saline (PBS, Thermofisher, Waltham, MA, USA), the conditions were applied for 1 h. Peptides were applied at a concentration between 20 and 100 μM. A chemical inhibitor of PKC ζ was also tested. The molecule 4f was used at a concentration of 10 μM in 0.1% DMSO as a positive control. […]
(§3) 50 μg cell extracts and p-threonine proteins were separated by SDS-polyacrylamide gel electrophoresis (4–15%) (Bio-Rad, Hercules, CA, USA) and transferred to nitrocellulose membrane. […] These primary antibodies were then recognized by anti-mouse and anti-rabbit antibodies (Li-Cor Biosciences, Lincoln, NE, USA) and detected by Odyssey® imaging system (Li-Cor Biosciences). […]

[2] = tested on: ZO-1 expression in Caco-2 cells; assay: Immunoblot of total protein extracts from Caco-2 cells, ZO-1; assay type: cell-based, human; details: Caco-2, 1 h, peptides 50 μM, In 10 μM, normalised to actin
Experimental: as §1, §2, §3

[3] = tested on: Caco-2 cells; assay: Quantitative proteomic analysis (DIA LC-MS/MS) of Caco-2 cells; assay type: cell-based, human; details: Caco-2, 1 h
Experimental: For Western blot experiments, cells were seeded in 12-well plates (Merck, Schaffhausen, Switzerland) at a density of 50′000 cells/cm^2. For the proteomic experiments, the cells were seeded in T10 flasks (Merck, Schaffhausen, Switzerland) at the same initial seeding density. After 7 days and two washes with warm phosphate buffered saline (PBS, Thermofisher, Waltham, MA, USA), the conditions were applied for 1 h. Peptides were applied at a concentration between 20 and 100 μM. A chemical inhibitor of PKC ζ was also tested. The molecule 4f was used at a concentration of 10 μM in 0.1% DMSO as a positive control. All dilutions were done in 0.9% saline solution. After incubation, cells for Western blot experiments were lysed with RIPA buffer (Cell signalling, Danvers, MA, USA) containing protease and phosphatase inhibitors (Roche, Basel, Switzerland). After centrifugation to discard cell components, the samples were stored at −20 °C. Cells for proteomic analysis were detached with trypsin, washed 3 times with PBS and kept at −80 °C until analysis. Samples for proteomic analysis were produced in triplicate for each condition.
Cell pellets were resuspended in 100 μL of 0.1% RapiGest Surfactant (Waters, Milford, MA, USA) in 50 mM ammonium bicarbonate (AB). Samples were heated for 5 min at 100 °C. Lysis was performed by sonication (6 × 30 s) at 70% amplitude and 0.5 pulse. Samples were kept 30 s on ice between each cycle of sonication. Samples were centrifuged for 10 min at 14′000×g. Protein concentration was measured by Bradford assay and 25 μg of each sample was subjected to protein digestion as follows: the sample volume was adjusted to 100 μL with 0.1% RapiGest in 50 mM AB. 2 μL of 50 mM dithioerythritol (DTE) were added and the reduction was carried out at 60 °C for 1h. Alkylation was performed by adding 2 μL of iodoacetamide 400 mM during 1 h at room temperature in the dark. Overnight digestion was performed at 37 °C with 5 μL of freshly prepared trypsin (Promega AG, Dübendorf, Switzerland) in 50 mM AB at a concentration of 0.2 μg/μL. To remove RapiGest, samples were acidified with trifluoroacetic acid (TFA), heated at 37 °C for 45 min and centrifuged 10 min at 17′000×g. Supernatants were then desalted with a C18 microspin column (Harvard Apparatus, Holliston, MA, USA) according to the manufacturer's instructions, completely dried under speed-vacuum and stored at −20 °C.
Samples were diluted at 1 μg/μL with loading buffer (5% CH3CN, 0.1% FA). Biognosys iRT peptides were added to each sample and 2 μg of peptides were injected onto the column. LC-ESI-MS/MS was performed on an Orbitrap Fusion Lumos Tribrid mass spectrometer (Thermo Scientific, San Jose, CA, USA) equipped with an Easy nLC1200 liquid chromatography system (Thermo Scientific, San Jose, CA, USA). Peptides were trapped on an Acclaim pepmap100, C18, 3 μm, 75 μm × 20 mm nano trap-column (Thermofisher) and separated on a 75 μm × 500 mm, C18 ReproSil-Pur (Dr. Maisch GmbH, Ammerbuch, Germany), 1.9 μm, 100 Å, custom-made column. The analytical separation was run for 135 min using a gradient of H2O/FA 99.9%/0.1% (solvent A) and CH3CN/H2O/FA 80.0%/19.9%/0.1% (solvent B). The gradient was run from 8% B to 28% B in 110 min, then to 42% B in 25 min, then to 95%B in 5 min with a final stay of 20 min at 95% B. Flow rate was of 250 nL/min a total run time was of 160 min. Data-Independent Acquisition (DIA) was performed with MS1 full scan at a resolution of 60,000 (FWHM) followed by 30 DIA MS2 scan with fix windows. MS1 was performed in the Orbitrap with an automatic gain control (AGC) target of 1 × 10^6, a maximum injection time of 50 ms and a scan range from 400 to 1240 m/z. DIA MS2 was performed in the Orbitrap using higher-energy collisional dissociation (HCD) at 30%. Isolation window was set to 28 m/z with an AGC target of 1 × 10^6 and a maximum injection time of 54 ms. […]

[4] = previous studies; cited from earlier work
Excerpt: Previous studies have shown that ZIP is not specifically and competitively inhibiting PKC ζ phosphorylation of some TJ proteins (occludin and ZO-1). The structural similarities of the PS of the PKC family does explain this non-specificity. Therefore, L-R5 would also be competitive with other PKCs and would interfere with most intracellular mechanisms involving PKCs. […] Given the absence o ...

[5] = target: protein kinase C zeta (PKC ζ) (not stated (only the C-terminal fragment is called human)) (UniProt Q05513); assay: MST; PKC ζ labelled by RED-Tris-NTA on its His tag, fixed (20 nM with L-R5 at 0-4000 μM; 30 nM with occludin at 0-35000 nM); ligand in serial dilution; Tris buffer pH 7.4; hydrophilic capillaries; 20%, 40% and 80% MST power
[6] = target: protein kinase C zeta (PKC ζ) (not stated (only the C-terminal fragment is called human)) (UniProt Q05513); assay: MST; labelled PKC ζ fixed at 30 nM; occludin in serial dilution 0-11300 nM; L-R5 present as competitor at a fixed 1.25 mM; Tris buffer pH 7.4; hydrophilic capillaries
[7] = target: T1, PKC ζ-occludin interaction (Homo sapiens, UniProt Q16625); assay: Microscale thermophoresis (MST), interaction between PKC ζ and occludin, without and with L-R5 as competitor; assay type: binding; details: labelled PKC ζ 30 nM, occludin as ligand 0-35 μM, no competitor, Tris buffer pH 7.4, n = 2
T1 construct: purchased Eurofins pharma (PKC ζ); occludin source not clearly printed (probably RayBiotech); host or cells: Sf21 insect cells (PKC ζ)
T1 sequence (Q16625 266-522 limits assumed): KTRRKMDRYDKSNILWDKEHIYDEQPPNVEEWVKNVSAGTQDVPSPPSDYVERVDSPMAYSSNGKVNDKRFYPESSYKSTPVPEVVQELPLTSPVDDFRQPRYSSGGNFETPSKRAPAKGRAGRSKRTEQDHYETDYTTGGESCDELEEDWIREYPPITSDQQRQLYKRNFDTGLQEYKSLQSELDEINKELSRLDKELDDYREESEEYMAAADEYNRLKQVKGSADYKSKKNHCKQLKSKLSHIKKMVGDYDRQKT
Experimental: The protein construct of PKC ζ active (recombinant enzyme expressed in Sf21 insect cells) was purchased from Eurofins pharma (Dundee, United Kingdom) and the recombinant human […] was purchased from RayBiotech (Peachtree Corners, GA, USA). Fluorescent labelling of both, PKC ζ and occludin was performed following the protocol of coupling the His-tag labelling kit RED-Tris-NTA 2nd generation (Nanotemper Technologies, Munich, Germany) to their respective histidine tail. The fluorescence of the tagged proteins was then measured with the monolith NT.115 microscale thermophoresis instrument (Nanotemper Technologies, Munich, Germany). An excitation LED of 100% was set for the Cap. Scan. The predicted optimal dilution was then calculated to obtain a final fluorescence signal of 100 Raw fluorescence [counts].
Hydrophilic capillaries were used for the different tests because the samples interacted with standard capillaries. […] The different solutions were analysed by MST at 20%, 40% and 80% MST power with a 100% LED intensity. […] The results and Kd values were analysed by MO.affinity analysis 3 software (Nanotemper Technologies, Munich, Germany).
Microscale thermophoresis is a method used to quantify the affinity between two molecules (e.g., proteins) by increasing the concentration of the ligand while keeping the concentration of the target fixed. […]

[8] = target: T2, occludin (UniProt Q16625 1-522); assay: MST; occludin labelled by RED-Tris-NTA on its His tag, fixed at 50 nM; L-R5 in serial dilution 0-25000 μM; Tris buffer pH 7.4; hydrophilic capillaries; 20%, 40% and 80% MST power; details: both partners purified
T2 chain: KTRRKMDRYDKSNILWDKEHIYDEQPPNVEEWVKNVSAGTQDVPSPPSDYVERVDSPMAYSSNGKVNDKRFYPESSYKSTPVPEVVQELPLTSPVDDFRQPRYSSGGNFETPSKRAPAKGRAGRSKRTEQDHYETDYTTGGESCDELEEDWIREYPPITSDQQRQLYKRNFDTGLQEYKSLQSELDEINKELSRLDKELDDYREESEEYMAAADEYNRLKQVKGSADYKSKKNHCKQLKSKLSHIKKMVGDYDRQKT

## CC(C)(C)C1=NN(c2cccc(Cl)c2)C(c2ccc(F)c(O)c2)C1 (centres unmarked) [In, 5-(3-(tert-Butyl)-1-(3-chlorophenyl)-4,5-dihydro-1H-pyrazol-5-yl)-2-fluorophenol]
[1]
  TJ protein expression (occludin and ZO-1, Western blot, Fig. 3): did not result in a significant decrease
[1]; normalised to actin
  expression of occludin (Western blot): no effect
[2]
  expression of ZO-1 (Western blot): no effect
[3]; L-R5 50 μM or In 10 μM, n = 3
  number of downregulated proteins versus control (log 2 (FC) < 0): 10 proteins
  number of upregulated proteins versus control (log 2 (FC) ≥ 0): 6 proteins
[3]; L-R5 50 μM or In 10 μM, p ≤ 0.05, n = 3
  number of significantly differentially expressed proteins versus control: 16 proteins
[3]; L-R5 50 μM, In 10 μM, n = 3
  expression of E1A binding protein p300 (proteomics): significantly decreased
  expression of ZO-1 (proteomics): no impact
  expression of occludin (proteomics): no impact

## CCCCCCCCCCCCCC(=O)N[C@@H](C)C(=O)N[C@@H](CCCNC(=N)N)C(=O)N[C@@H](CCCNC(=N)N)C(=O)N[C@@H](Cc1c[nH]c2ccccc12)C(=O)N[C@@H](CCCNC(=N)N)C(=O)O [L-R5] (Myristoyl-ARRWR-OH)
[4]
  in vitro cytotoxicity: absence of cytotoxicity

## occludin (from UniProt Q16625 1-522) (natural protein)
[5]
  Kd: 0.617 µM
[6]
  Kd: 2.16 µM

B1: occludin: tight junction protein, His-tagged recombinant, used as ligand and as labelled target in MST (protein, UniProt Q16625 1-522, looked up)
Occludin: MSSRPLESPPPYRPDEFKPNHYAPSNDIYGGEMHVRPMLSQPAYSFYPEDEILHFYKWTSPPGVIRILSMLIIVMCIAIFACVASTLAWDRGYGTSLLGGSVGYPYGGSGFGSYGSGYGYGYGYGYGYGGYTDPRAAKGFMLAMAAFCFIAALVIFVTSVIRSEMSRTRRYYLSVIIVSAILGIMVFIATIVYIMGVNPTAQSSGSLYGSQIYALCNQFYTPAATGLYVDQYLYHYCVVDPQEAIAIVLGFMIIVAFALIIFFAVKTRRKMDRYDKSNILWDKEHIYDEQPPNVEEWVKNVSAGTQDVPSPPSDYVERVDSPMAYSSNGKVNDKRFYPESSYKSTPVPEVVQELPLTSPVDDFRQPRYSSGGNFETPSKRAPAKGRAGRSKRTEQDHYETDYTTGGESCDELEEDWIREYPPITSDQQRQLYKRNFDTGLQEYKSLQSELDEINKELSRLDKELDDYREESEEYMAAADEYNRLKQVKGSADYKSKKNHCKQLKSKLSHIKKMVGDYDRQKT
modifications: His tag
notes: tight junction protein, His-tagged recombinant, used as ligand and as labelled target in MST
[7]
  Kd: 0.617 µM

B2: L-R5 (myr-ARRWR), myristoylated pentapeptide (peptide)
peptide: Myristoyl-ARRWR
notes: also called L-R5 peptide; source: synthetic peptide, obtained from Bachem AG
[8]
  Kd: 606 µM
